According to patent US10420734B2, “Method of treating cancer using selective estrogen receptor modulators” (Duke University, priority 2014, dated 2019):
Values belong to the compound of their own block, whether it stands above or below them.

Tests used:
[1] = system: MCF7 cells; experiment: MCF7 proliferation in response to E2 or insulin; assay type: cell-based; settings: SERMs and SERDs 10^-6 M, insulin 2×10^-9 M
Protocol: The expression of ESR1 target genes responsive to (FIG. 10A) agonists, (FIG. 10B) primarily SERMs, or (FIG. 10C) SERMs and agonists was analyzed as in FIG. 5. Relative changes of these and additional target genes designed to evaluate dose dependent response to RAD1901 are presented in FIG. 11. Significant target gene regulation (*p<0.05) as compared to the vehicle control was detected by 2 way ANOVA followed by Fisher's LSD (Graphpad Prism 6). […] Triplicate wells of SKBR3 cells were transfected with plasmids expressing ESR1 fused to VP16 together with Gal4DBD alone (control) or Gal4DBD fused to ESR1 interacting peptides noted on the horizontal axis. Cells were then treated with the indicated ESR1 ligands (10^−7 M unless otherwise indicated). Interaction of ESR1 with the Gal4DBD peptide constructs was detected through activation of a Gal4-responsive luciferase reporter construct and was normalized to detected β-galactosidase activity expressed in a constitutive manner using a second vector. Normalized response was expressed as fold increase over the detected level of interaction between Gal4DBD alone and ESR1-VP16 in the absence of ligand (Veh). For FIG. 10E, the effect of SERMs and SERDs (10^−6 M) on the proliferation of MCF7 cells in response to E2 (10^−9 M) or insulin (2×10^−9 M) was evaluated as in FIG. 5. Statistically similar treatments (2-way ANOVA followed by Bonferroni comparison) are indicated by letters. […] The expression of ESR1 target genes responsive to (A) agonists, (B) primarily SERMs, or (C) SERMs and agonists was analyzed using RT qPCR following RNA isolation. mRNA expression was normalized (ΔΔCT analysis) to the similarly detected 36B4 housekeeping. The profiles presented in dendogram format were analyzed with the Ward hierarchical clustering algorithm (JMP 11) using standardized data.

[2] = molecular target: T1, ESR1 (Homo sapiens, UniProt P03372); experiment: ESR1 expression in LTED MCF7 cells (immunoblot); assay type: cell-based; settings: 24 hours, SERDs 10^-6 M
T1 sequence (P03372 1-595): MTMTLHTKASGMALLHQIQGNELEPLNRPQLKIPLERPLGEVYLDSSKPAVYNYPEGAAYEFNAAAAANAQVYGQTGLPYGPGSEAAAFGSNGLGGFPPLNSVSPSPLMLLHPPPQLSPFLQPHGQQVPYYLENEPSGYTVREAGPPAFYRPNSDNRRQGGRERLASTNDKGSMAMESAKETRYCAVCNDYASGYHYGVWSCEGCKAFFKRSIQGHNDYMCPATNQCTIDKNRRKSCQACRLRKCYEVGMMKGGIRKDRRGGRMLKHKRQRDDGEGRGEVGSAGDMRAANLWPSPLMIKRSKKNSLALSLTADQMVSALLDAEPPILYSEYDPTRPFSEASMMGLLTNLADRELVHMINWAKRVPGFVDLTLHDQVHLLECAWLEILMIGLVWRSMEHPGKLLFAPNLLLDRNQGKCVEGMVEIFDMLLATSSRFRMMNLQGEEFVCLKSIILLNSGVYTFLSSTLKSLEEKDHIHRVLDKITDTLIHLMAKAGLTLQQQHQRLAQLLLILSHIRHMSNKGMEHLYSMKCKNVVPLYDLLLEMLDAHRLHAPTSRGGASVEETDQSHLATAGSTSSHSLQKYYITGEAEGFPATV
Protocol: MCF7 and SKBR3 cell lines were maintained in DMEM/F12 or RPMI media (Invitrogen), respectively, supplemented with 8% fetal bovine serum (FBS, Gemini), non-essential amino acids (Invitrogen), and sodium pyruvate (Invitrogen). Unless otherwise indicated, cells were plated for experiments in media lacking phenol red and supplemented with 8% charcoal stripped FBS (CFS, Gemini). LTED MCF7 cells were maintained and plated for experiments in phenol red free DMEM/F12 media supplemented with 8% CFS that had been charcoal stripped twice. 48 hours after plating, cells were treated with ESR1 ligands as indicated, and were harvested for immunoblot or real time quantitative PCR analysis 24 hours after treatment.
Expression of ESR1 and loading control cytokeratin 18 (CK18—FIG. 7A) in whole cell extracts were detected by immunoblot (top). ESR1 levels relative to CK18 were quantitated by densitometry using Adobe Photoshop (bottom). […] ESR1 expression was detected as in FIG. 6A. For FIGS. 6C-6D, LTED MCF7 cells were plated in phenol red free media supplemented with FBS that was stripped of growth factors twice using charcoal. For FIG. 6C, after 48 hours, cells were treated for 24 hours with E2 (10^−7 M) or SERDs (10^−6 M) and ESR1 was analyzed as in FIG. 6A.

[3] = system: LTED MCF7 cells; experiment: LTED MCF7 cell proliferation assay; assay type: cell-based; settings: model of aromatase resistance, 10^-11-10^-6 M, 8 day assay
[4] = system: MCF7 xenograft tumors; experiment: MCF7 xenograft tumor study in estrogen-treated ovariectomized nu/nu mice; assay type: in vivo; settings: 20 mg/kg sc daily
Protocol: A total of 90 female Nu/Nu mice were ovariectomized and implanted subcutaneous simultaneously with an estrogen pellet (Innovative Research of America) releasing 0.72 mg estradiol (E2) over 60 days. 2 days later an approximately 6 mm^3 fragment of an MCF7 xenograft tumor (isolated from a recently sacrificed estrogen treated nu/nu mouse) was inserted subcutaneous into the axial mammary gland. Tumor growth (by caliper measurement) and animal body weight were monitored 3× weekly until tumor volume reached ˜0.2 cm^3. […] Treatments were formulated in sterile corn oil and were administered daily by subcutaneous injection. After 3 weeks of treatments, animals were euthanized and serum and tissues saved for analysis. FIG. 1B depicts tumor volume analyzed using non-linear curve fit and exponential growth calculation (Graphpad Prism), followed by two-way ANOVA and Bonferroni analysis.
Xenograft tumor analysis: Estrogen-stimulated MCF7 tumors were initiated in the axial mammary gland of 6-week old estrogen-treated (0.72 mg/60 days pellet sc, Innovative Research of America) ovariectomized female NU/NU mice (in-house colony) by serial transfer and were measured as described (Wardell et al., (2013) Clin Cancer Res 19 (9):2420-2431). […] Animal tissues were processed and analyzed as described (Wardell et al., (2013) Clin Cancer Res 19 (9):2420-2431).
The ability of RAD1901 (FIG. 5A) to modulate the […] estradiol (E2) dependent transcriptional activity of the human estrogen receptor alpha (ESR1) and human estrogen receptor beta (ESR2) was assessed in transiently transfected SKBR3 cells using a synthetic reporter gene. […] DNA content as assessed by fluorescence was measured as a surrogate for cell proliferation. The relative increase in DNA fluorescence was calculated by normalizing to baseline values detected in a duplicate plate of cells that was harvested on day 1 prior to the initial treatment. […] For FIG. 5F, expression of ESR1 target genes in tumors was analyzed essentially as in (C).

Compound: 4-hydroxytamoxifen [4OHT]
insulin-stimulated proliferation [1]: without effect

ESR1 expression levels [2]: downregulated ESR1 expression
Compound: C[C@]12CC[C@@H]3c4ccc(O)cc4C[C@@H](CCCCCCCCC[S+]([O-])CCCC(F)(F)C(F)(F)F)[C@H]3[C@@H]1CC[C@@H]2O (stereo partly shown) [ICI, ICI 182,780]
insulin-stimulated proliferation [1]: efficiently inhibited | cell proliferation [3]: inhibited cell proliferation

Compound: O=C(c1ccc(OCCN2CCCCC2)cc1)c1c(-c2ccc(O)cc2)sc2cc(O)ccc12 [Ralox, raloxifene]
insulin-stimulated proliferation [1]: without effect

Compound: CC/C(=C(\c1ccccc1)c1ccc(OCCN(C)C)cc1)c1ccccc1 [tamoxifen, reference compound]
cell proliferation [3]: minimally effective | expression of ESR1-target genes PGR and FHL1 in treated tumors [4]: suppress the expression of the ESR1-target genes PGR and FHL1 to the same degree
